The values below are quoted from earlier work in patent publication US20260185050A1, “BIOLOGIC INTERFACIAL TISSUE-ENGINEERED SYSTEMS USEFUL AS ARTHROPOD BITEMODEL” (UNIVERSITY OF CENTRAL FLORIDA RESEARCH FOUNDATION, INC., priority 2022, published 2026).

For data set [1] the following is noted: C5 epimers of alginate.
The test system of a further data set is Aedes aegypti. The note with it: selective dose response work, males and females.
For a further data set, the system named is Aedes albopictus. The conditions noted are these: selective dose response work, males and females.
In another data set the test system is Culex pipiens. The conditions noted are these: select experiments.

The pKa is the negative logarithm of the acid dissociation constant. As for `O=C(O)[C@@H]1O[C@@H](O)[C@@H](O)[C@@H](O)[C@@H]1O` [G, α-L-guluronate], in data set [1], the pKa is 3.65.
Turning to `O=C(O)[C@H]1O[C@@H](O)[C@@H](O)[C@@H](O)[C@@H]1O` [M, β-D-mannuronate], the pKa in data set [1] is reported as 3.38.
As for `CC(O)CO` (centres unmarked) [propylene glycol], the “kill performance versus erythritol” value with Aedes aegypti, with Aedes albopictus and with Culex pipiens was “outperform erythritol” in each case.
